In US20210401928A1, “ANTI-OBESITY AGENT, POLLAKIURIA IMPROVING AGENT, AND AUTONOMIC NERVOUS ACTIVITY REGULATOR” (ASAHI GROUP HOLDINGS, LTD., priority 2018, published 2021):
Ends that are not written are not given here.

Test system: rat spontaneous urination
Experiment: Rat spontaneous urination test (metabolism cage, 7 days ingestion from drinking)
Format: in vivo
Conditions: aqueous 0.1 mg/mL LNDP solution from drinking for 7 days
Experimental: It was confirmed from Test Example 2 that LNDP promotes the efferent hypogastric nerve activity, and it was confirmed from Test Example 3 that LNDP inhibits the efferent the pelvic splanchnic nerve activity. Influence on the bladder, which is one of the internal organs dominated by these nerves, was therefore investigated.
Male Wistar rats which are 13 weeks old were received, and quarantined and acclimated in a thermostat animal room at 18 to 28° C. in a cycle including a 12-hour light period and a 12-hour dark period for 1 week, and ten 14- to 16-week-old rats per group were tested. An aqueous 0.1 mg/mL LNDP solution or water was ingested from drinking for 7 days, and the urination amount was measured as weight with an electronic balance installed under a urine-collecting opening in raising with a metabolism cage. The weight data of the electronic balance every minute were automatically inputted into a computer. […] The total urination amount and the frequency of urination per day were found, and the urine amount per one time of urination (=the total urination amount per day/the frequency of urination per day) was calculated as to an individual of each group. […] As to the comparison of the test substance and ingestion days with respect to each measured value, two-way analysis of variance (two-way ANOVA) with replication was performed.

NIPPLTQTPVVVPPFLQPE [LNDP, Asn-Ile-Pro-Pro-Leu-Thr-Gln-Thr-Pro-Val-Val-Val-Pro-Pro-Phe-Leu-Gln-Pro-Glu]
significant difference in change in body weight vs water ingestion group: not observed | significant difference in general symptoms vs water ingestion group: not observed
